“And” between values parts separate entries of the source, which are not always exact repeats. Equal entries are not always repeated.
Experiments:
[1] = target: T1, Genome polyprotein (dengue virus type 2, UniProt P29990); assay type: functional, Thailand/16681/1984
[2] = target: T1, Genome polyprotein; assay type: functional, Thailand/16681/1984; remark: listed apart in the source

T1 sequence (P29990 1346-1475 limits assumed): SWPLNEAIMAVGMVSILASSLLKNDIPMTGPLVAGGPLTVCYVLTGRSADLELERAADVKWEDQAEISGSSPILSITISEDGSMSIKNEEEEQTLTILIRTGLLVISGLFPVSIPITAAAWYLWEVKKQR
T1 sequence (P29990 1476-2093 limits assumed): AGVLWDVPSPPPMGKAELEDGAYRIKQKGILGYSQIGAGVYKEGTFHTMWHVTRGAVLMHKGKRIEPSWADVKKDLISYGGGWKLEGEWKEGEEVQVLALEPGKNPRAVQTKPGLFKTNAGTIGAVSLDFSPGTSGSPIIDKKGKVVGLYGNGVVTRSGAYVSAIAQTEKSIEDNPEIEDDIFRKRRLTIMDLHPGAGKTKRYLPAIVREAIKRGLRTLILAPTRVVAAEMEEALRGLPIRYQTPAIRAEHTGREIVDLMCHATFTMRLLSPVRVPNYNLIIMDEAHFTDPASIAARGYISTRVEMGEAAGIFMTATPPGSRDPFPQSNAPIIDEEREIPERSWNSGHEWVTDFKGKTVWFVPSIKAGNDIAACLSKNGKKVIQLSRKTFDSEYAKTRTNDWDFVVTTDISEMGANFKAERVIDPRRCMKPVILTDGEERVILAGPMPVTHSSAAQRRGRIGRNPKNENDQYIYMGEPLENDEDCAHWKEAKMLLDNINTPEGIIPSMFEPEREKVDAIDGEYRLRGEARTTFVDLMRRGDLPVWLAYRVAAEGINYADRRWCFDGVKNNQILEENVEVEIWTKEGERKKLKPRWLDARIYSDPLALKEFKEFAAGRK

Compound | IC50 [1] | IC50 [2]
N=C(N)NCCC[C@H](NC(=O)c1nccs1)C(=O)N[C@@H](CCCCN)C(=O)N[C@@H](C(N)=O)c1ccc(OCc2ccc(C(F)(F)F)cc2)cc1 | 1.46 µM and 1.87 µM and 1.17 µM and 2.77 µM and 3.21 µM and 2.73 µM and 3 µM and 2.69 µM and 2.58 µM and 2.57 µM (2×) and 2.84 µM (2×) and 3.15 µM and 3.2 µM and 2.52 µM (2×) and 2.33 µM and 2.17 µM and 2.34 µM and 2.39 µM and 2.31 µM and 2.49 µM and 2.93 µM and 2.95 µM and 2.64 µM and 3.09 µM and 2.26 µM and 2.59 µM and 2.92 µM and 2.68 µM and 2.2 µM and 2.3 µM and 2.12 µM and 1.71 µM and 1.91 µM and 1.72 µM and 2.55 µM and 2.1 µM | –
N=C(N)NCCC[C@H](NC(=O)[C@H](Cc1ccc(CN)cc1)NC(=O)c1ccccc1)B(O)O | 305 nM and 257 nM and 222 nM and 304 nM and 397 nM and 347 nM and 311 nM and 370 nM and 386 nM and 288 nM and 401 nM (2×) and 387 nM and 378 nM and 379 nM and 356 nM and 445 nM and 309 nM and 358 nM (2×) and 321 nM and 398 nM and 512 nM and 367 nM and 298 nM and 273 nM and 243 nM and 437 nM and 458 nM and 503 nM and 302 nM and 267 nM and 516 nM and 409 nM and 384 nM and 328 nM and 540 nM and 421 nM | 720 nM and 583 nM and 818 nM and 732 nM and 585 nM and < 2.49 µM (9×) and 276 nM and 270 nM and 274 nM and 310 nM and 236 nM and 572 nM and 397 nM and 474 nM and 507 nM and 265 nM
Nc1cc(Cl)cc(C(=O)Nc2ccc3c(c2)CNC3)c1N | > 100 µM | –
Cc1c(C(=O)Nc2cccc(-c3nnn[nH]3)c2)sc2ccccc12 | 75.2 µM | –
Cc1ccncc1-c1cc(CN)cc([C@@H]2C[C@H]2c2cc(Cl)cc(NC(=O)OCc3ccccc3)c2)c1 | > 100 µM | –
O=C(Nc1cc(Cl)cc(C(=O)Nc2ccc3c(c2)CNC3)c1)OCc1ccccc1 | > 100 µM | > 99.5 µM
O=C(Nc1ccc2c(c1)CNC2)c1cc(Br)cc2[nH]c(Cc3ccccc3)nc12 | > 100 µM and 53.9 µM | –
O=C(O)c1cc(Cc2c[nH]c3ccc(Cl)cc23)cc(C2CC2)n1 | > 100 µM | –
N#C[C@H](Nc1ccc2c(c1)CNC2)c1n[nH]c2cc(C(F)(F)F)ccc12 | > 100 µM | –
N[C@H]1CCc2cc(NC(=O)c3cc(Cl)cc4[nH]ncc34)ccc21 | 59.2 µM | –
CC(C)c1nc2c(C(=O)Nc3ccc4c(c3)CNC4)cc(Br)cc2[nH]1 | > 100 µM | –
N#Cc1cccc(-c2nc3c(C(=O)Nc4cccnc4)cc(Cl)cc3[nH]2)c1 | > 100 µM | –
N#Cc1cccc(-c2nc3c(C(=O)Nc4ccncc4)cc(Cl)cc3[nH]2)c1 | > 100 µM | –
N#Cc1cccc(-c2nc3c(C(=O)Nc4ccccc4)cc(Cl)cc3[nH]2)c1 | > 100 µM | –
N#Cc1cccc(-c2nc3c(C(=O)NCc4ccccc4)cc(Cl)cc3[nH]2)c1 | > 100 µM | –
C=CC[C@H](Nc1cc([C@H]2CCOC2)ccn1)c1cc(C2CC2)n(C)n1 | – | > 99.5 µM
Cc1c(C(=O)Nc2cc(C(=O)N3CCn4nccc43)ccn2)cc(C2CC2)n1C | > 100 µM | –
NCc1cccc([C@@H]2C[C@H]2c2cc(Cl)cc(NC(=O)OCc3ccccc3)c2)c1 | > 100 µM | 30.3 µM and 50.1 µM
O=C(Nc1ccc2c(c1)CNC2)c1cc(F)cc(C=C2CCS(=O)(=O)CC2)c1 | – | > 99.5 µM
CC(C)CNC(=O)c1cc(Cl)cc2[nH]c(-c3cccc(C#N)c3)nc12 | > 100 µM | –
Cc1c(C(=O)Nc2ccc3c(c2)C(=O)N(C)C3)cc(C2CC2)n1C | – | > 99.5 µM
Cc1cc(NC(=O)c2cc(C3CC3)n(C)c2C)ccc1N1CCCC1=O | – | > 99.5 µM

Compound | IC50 [1] | IC50 [2]
Cc1c(C(=O)Nc2ccc3c(c2)CCCC(=O)N3)cc(C2CC2)n1C | – | > 99.5 µM
O=C(Nc1ccc2c(c1)CNC2)c1cc(F)cc(C2=CCCOC2)c1 | – | > 99.5 µM
NCc1cccc(NC(=O)[C@@H](NC(=O)OCc2ccccc2)c2ccc(OCc3ccccc3)cc2)c1 | 31 µM and 29.9 µM and 41.3 µM and 32.5 µM and 27.7 µM and 33.1 µM and 29.8 µM and 19 µM and 28.8 µM | 14.2 µM
Cc1c(C(=O)Nc2cccc(-c3ccc(=O)[nH]n3)c2)cc(C2CC2)n1C | – | > 99.5 µM
NCc1cccc(NC(=O)C[C@H](NC(=O)OCc2ccccc2)c2ccc(OCc3ccccc3)c(Br)c2)c1 | 8.8 µM and 6.74 µM and 4.06 µM and 4.11 µM and 9.99 µM and 4.61 µM and 3.66 µM | < 2.49 µM and 1.85 µM and 1.92 µM and 1.84 µM and 2.53 µM and 2.67 µM and 2.65 µM
COC(=O)[C@H](C)n1cc2c(C(=O)Nc3ccc4c(c3)CNC4)cc(Cl)cc2n1 | – | > 99.5 µM
O=C(Nc1cc(Cl)cc(C(=O)Nc2ncc(C3CNC3)s2)c1)OCc1ccccc1 | > 100 µM | –
NCc1cccc(NC(=O)c2cc(NC(=O)OCc3ccccc3)cc(C(N)=O)c2)c1 | > 100 µM | > 99.5 µM
C=CC[C@H]1NCc2cc(NC(=O)c3ccc4c(c3)CC(=O)N4)ccc21 | – | > 99.5 µM
CC(C)c1nn(C)cc1-c1cc(F)cc(C(=O)Nc2ccc3c(c2)CNC3)c1 | – | > 99.5 µM
Brc1cc(CNc2ccc3c(c2)CNC3)c2cc[nH]c2c1 | – | > 99.5 µM
COc1cc(C(=O)Nc2ccc3c(c2)CNC3)cc2ccoc12 | – | > 99.5 µM
COc1ccccc1-c1nc2c(C(=O)Nc3ccc4c(c3)CNC4)cc(F)cc2[nH]1 | > 100 µM | –
NCc1nc(CNC(=O)c2cc(Cl)cc(NC(=O)OCc3ccccc3)c2)cs1 | > 100 µM | > 99.5 µM
O=C(O)c1cc(Cl)c(F)cc1NS(=O)(=O)c1ccc(Oc2ccccc2Cl)cc1 | 11.2 µM and 8.35 µM and 16.5 µM and 10.2 µM and 9.1 µM and 8.36 µM and 12.3 µM and 5.27 µM and 5.73 µM | 7.82 µM
NCc1cccc(NC(=O)[C@H](NC(=O)OCc2ccccc2)c2cccc(OCc3ccncc3)c2)c1 | > 100 µM | > 99.5 µM
CC[C@H](CO)NC(=O)Cn1ccnc(N2CC[C@H](CO)C2)c1=O | > 100 µM | –
NCc1cccc(NC(=O)c2cccc(CN)c2)c1 | > 100 µM | –
NCc1cccc(NC(=O)[C@H](NC(=O)OCc2ccccc2)C2CCN(Cc3ccccc3)CC2)c1 | > 100 µM | > 99.5 µM
CCN1CC[C@H](COc2cccc([C@H](NC(=O)OCc3ccccc3)C(=O)Nc3cccc(CN)c3)c2)C1 | > 100 µM | > 99.5 µM
Cc1cccc(-c2nc3c(C(=O)Nc4ccc5c(c4)CNC5)cc(F)cc3[nH]2)c1 | – | 8.87 µM and 6.46 µM
